Assay results: patent US4663334A, “Heteroaromatic acetylenes useful as antihypertensive agents” (McNeilab, Inc., priority 1985, dated 1987)
Structures can show the parent of a compound that is named as a salt.

System: spontaneously hypertensive rats
Experiment: Spontaneously Hypertensive Rat (SHR) test
Assay type: in vivo
Conditions: oral dose 30 mg/kg
From the text: The activity of compounds of formula (I) for the treatment of hypertension may be determined using the Spontaneously Hypertensive Rat (SHR) test as described below.
In this test, the arterial pressure of adult spontaneously hypertensive rats (Charles River) is monitored directly via an aortic cannula. The SH rats are anesthetized with an inhalation anesthetic (ether). The left carotid artery is isolated and cannulated. The tip of the cannula is advanced to the aorta and the cannula is exteriorized behind the neck at the level of the scapula. Animals are placed in individual cages and allowed to recover from the anesthetic and are kept unrestrained. The arterial cannula is connected to the pressure transducer which is attached to the recorder. The test compounds are administered to at least 3 rats at doses selected in the range of 0.1 to 100 mg/kg of body weight by intraperitoneal (i.p.) or oral (p.o.) routes of administration. The arterial pressure and heart rate are monitored for a minimum of 24 hours. A test compound is considered to be active as an antihypertensive agent if the mean arterial pressure (MAP) indicates a fall of >15 mm of Hg. Each animal serves as its own control.

SMILES | duration of blood pressure reduction [h] | heart rate change [beats/min] | reduction of hypertensive blood pressure (mean arterial pressure) [mm Hg]
CC(C)(C)NCC(O)COc1ccccc1C#Cc1ccncc1.O=C(O)/C=C/C(=O)O (stereo not drawn) [Example 1, 1-[(1,1-Dimethylethyl)amino]-3-[2-(4-pyridinylethynyl)phenoxy]-2-propanol (E)-2-Butenedioate] | 7.5 | -87 | -46
CC(C)(C)NCC(O)COc1ccccc1C#Cc1cccnc1 (stereo not drawn) [Example 2, 1-[(1,1-Dimethylethyl)amino]-3-[2-(3-pyridinylethynyl)phenoxy]-2-propanol Hydrochloride Hydrate (4:4:1)] | 10.5 | -41 | -54
